According to patent publication US20100080785A1, “DRIED FORMULATIONS” (Zymes, LLC, priority 2008, published 2010):

Columns and labels:
[1] = stability and shelf life at ambient conditions; format: physicochemical; details: ubiquinol
From the text: By contrast, the dry formulations of ubiquinol disclosed herein remains white for weeks at ambient conditions.
By contrast, the dry formulations of omega-3 fatty acid disclosed herein remains odorless for weeks at ambient conditions.

[2] = stability of the solution on heating to 50-55° C.; format: physicochemical

| Compound | oxidation / colour on storage [1] | degradation on heating without pH adjustment [2] |
| --- | --- | --- |
| COc1c(O)c(C)c(C/C=C(\C)CC/C=C(\C)CC/C=C(\C)CC/C=C(\C)CC/C=C(\C)CC/C=C(\C)CC/C=C(\C)CC/C=C(\C)CC/C=C(\C)CCC=C(C)C)c(O)c1OC [bulk ubiquinol, ubiquinol] | gradually oxidizes and develops a yellow hue | – |
| polyoxyethanyl tocopheryl sebacate [PTS] | – | decomposes and undergoes hydrolysis |
